Experimental findings from article PMC7613620, “Reaction hijacking of tyrosine tRNA synthetase as a whole-of-life-cycle antimalarial strategy” (Science (New York, N.Y.), 2022) are described below.

Like-named read-outs stand apart in the source and are kept apart here. Where only a bound is given, the exact number is not on record here.

The target in data set [1] is human Atg7 (Homo sapiens, UniProt O95352). Nature of the data set: E1-E2 transthiolation HTRF assay, ATG7 (RH-GABARAP). The format is biochemical. The source says: 592 E1-E2 Transthiolation Assays
Sequence of human Atg7 (O95352 whole entry): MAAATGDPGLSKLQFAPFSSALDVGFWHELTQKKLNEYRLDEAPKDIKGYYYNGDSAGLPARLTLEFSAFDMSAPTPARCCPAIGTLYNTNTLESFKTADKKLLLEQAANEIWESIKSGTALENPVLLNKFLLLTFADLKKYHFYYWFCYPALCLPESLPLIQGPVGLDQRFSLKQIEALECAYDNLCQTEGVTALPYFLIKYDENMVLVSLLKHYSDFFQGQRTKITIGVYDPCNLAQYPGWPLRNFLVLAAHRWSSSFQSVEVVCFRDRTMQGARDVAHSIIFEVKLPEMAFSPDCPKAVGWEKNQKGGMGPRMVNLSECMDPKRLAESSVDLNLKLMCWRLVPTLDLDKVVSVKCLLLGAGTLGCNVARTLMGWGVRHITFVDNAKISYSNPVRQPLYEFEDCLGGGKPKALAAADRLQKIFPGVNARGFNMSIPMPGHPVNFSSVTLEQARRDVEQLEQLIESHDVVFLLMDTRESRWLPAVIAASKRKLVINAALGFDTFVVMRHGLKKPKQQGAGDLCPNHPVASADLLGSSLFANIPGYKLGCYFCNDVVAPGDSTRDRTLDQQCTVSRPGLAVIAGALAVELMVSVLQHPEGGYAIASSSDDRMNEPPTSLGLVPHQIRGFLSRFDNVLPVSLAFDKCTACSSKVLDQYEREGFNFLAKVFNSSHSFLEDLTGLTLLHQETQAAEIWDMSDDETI
593 An Homogeneous Time-Resolved Fluorescence (HTRF) enzyme assay was employed to evaluate
594 compound activity against ATG7 as previously described (11). In this assay, a Flag-tagged ATG8 homolog
595 (GABA type A receptor-associated protein; GABARAP) is activated by ATG7 and then transthiolated to a
596 GST-tagged E2 (ATG3). The product of the enzyme reaction, Flag-GABARAP-ATG3-GST, is quantified
597 by measuring FRET between Europium-Cryptate labelled monoclonal anti-Flag M2 (CisBio International,
598 Cat# 61FG2KLB) and PHYCOLINK goat anti-GST allophycocyanin (Prozyme, PJ252p1). […]
606 Compounds were incubated with mature stage V gametocytes ([…], kind gift from Professor Chris Janse
607 at Leiden University Medical Center (LUMC), the Netherlands) for 48 hours in 384 well plates before
608 gamete formation was triggered by a drop in temperature and addition of xanthurenic acid. […]
611 Multiple data sets using different gametocyte cultures were collected on each of two separate days.
613 Activity against exoerythrocytic stages
614 Primary human hepatocytes (H1500.H15B+ Lot No. HC10-10 Cryopreserved human hepatocytes)
615 were cultured for 2 days and then overlaid with P. falciparum NF54 sporozoites and compounds.
616 Supernatant was refreshed daily with fresh compounds.

In data set [2] the test system is P. falciparum (3D7). Kind of data set: P. falciparum (3D7) culture growth inhibition, 72 h. The format is cell-based, Plasmodium falciparum. The conditions noted are these: for IC50: Plasmodium falciparum. On the procedure: (1 picture or pasted object on this page, not shown here)
553 Sigma-Aldrich) for 48-72 h. For drug pulse assays, tightly synchronized parasites (1-1.5% parasitemia,
554 0.2% final hematocrit) were added to the plates and incubated for 3 h. Drugs were removed and the
555 parasitemia assessed in the trophozoite stage of the next cycle.
557 Compounds were tested against a range of drug resistant field isolates and laboratory strains using a
558 modified [3H]-hypoxanthine incorporation assay, as previously reported (46). Field isolates 7G8, Cam3.1,
559 Dd2, K1, TM90C2B and NF54 were obtained from MR4 (www.beiresources.org).
(§1) 561 Mammalian cell culture experiments
(§2) 562 The HepG2 (Human hepatocyte carcinoma) cell line was procured from ATCC (American Type
(§3) 563 Culture Collection, Manassas, USA; HB-8065) and viability assessed using Cell Titer-GLO luminescent
(§4) 564 cell viability assay reagents (Promega, catalogue number: G7570) (47, 48). For the assay, 2000 cells/well
(§5) 565 were plated in 384-well plates 24 h prior to the experiment and incubated at 37°C in a CO2 incubator. The
(§6) 566 medium was removed and cells were treated with fresh medium containing either vehicle (0.5% DMSO)
(§7) 567 or serially diluted test compounds or doxorubicin (1.3 nM to 25 µM) in a final volume of 50 µl/well and
(§8) 568 further incubated for 72 h at 37°C in a CO2 incubator.
(§9) 569 were treated with 5 µl of 1% Triton X-100 (final assay conc. 0.1%). Following incubation, 25 µl of medium
(§10) 570 was discarded and 25 µl of Cell Titer-GLO reagent was added to each well and the plate was kept on a plate
(§11) 571 shaker for 15 min at 25°C with shaking at 300 rpm. Luminescence signals were measured in a Spectramax
572 M5 reader (Molecular Devices).
574 H1650 is a human lung cancer derived ATG7-null cell line (49) that can be used to assess effects on targets
576 adenocarcinoma; bronchoalveolar carcinoma). Other cells lines used are: H460 (NCI-H460; human lung;
577 carcinoma; large cell lung cancer; ATCC: HTB-177); and HCT116 (human colon; colorectal carcinoma;
578 ATCC: CCL-247; Lot : 5056139). Each of the cell lines was received from the American Type Culture
579 Collection (ATCC) and passaged twice before freezing. Cells were cultured in the presence or absence of
580 inhibitors and cell viability was assessed by comparing the ATP content in compound-treated wells with
581 that in DMSO-treated wells as previously described (11).
583 HeLa cells (human cervical adenocarcinoma; genome sequenced (Garvin Institute, Australia) and verified

The subject of data set [3] is eIF2α phosphorylation in P. falciparum. Kind of data set: Western blot for phosphorylated-eIF2α. In kind it is cell-based, Plasmodium falciparum. On the procedure:
Synchronous ring-stage YRScyt conditional knockdown line and the aptamer-regulatable control
700 the drug plate. Lowest drug treatment and a lethal dose of chloroquine (200 nM) served as reference
Two guide RNAs (gRNA1: […] and gRNA2:
Ring-stage P. falciparum parasites (Dd2 strain) at 10%
Using a modification of a published procedure (14), the
722 cells were labelled with O-propargyl-puromycin (OPP; 4 µM) for 1 h, washed 3x (PBS +3% serum) and
Flow cytometry was performed
730 hematocrit and 5% parasitemia. The RBC pellet was washed 3 x in PBS + cOmplete. Cells were centrifuged
The wash with PBS + cOmplete and
The pellet was resuspended in Bolt LDS sample
The samples were vortexed for 10 min at room temperature.
Secondary antibodies: goat
740 anti-rabbit IgG-peroxidase (Sigma-Aldrich-A0545; 1:20 000), goat anti-mouse IgG-peroxidase (Chemicon-
Chemiluminescence was detected using the Bio-Rad ChemiDocTM MP imaging
For the human mature YRS construct,
The YRS sequences were codon optimized for E. coli,
The vector was transformed into
PfYRS, PfYRSS234C and HsYRS were induced
Cell pellets were resuspended in 40 mL lysis
Cells were lysed by sonication (Microtip, QSonica)
The supernatant was applied to a 5
757 mL HisTrap HP column (GE Healthcare) and washed with 50 mL binding buffer containing 50 mM Tris-
His-YRS was eluted using a 0-500 mM
The eluted His-YRS was dialyzed overnight at 4°C
760 against 50 mM Tris-HCl, pH 8, 500 mM NaCl, 30 mM imidazole, 1 mM TCEP with the addition of His-
Cleaved His tags from His-YRS and TEV
YRS was further purified by gel filtration using a HiLoad 16/600 Superdex 200 column (GE

A short description of data set [4]: Solubility. The format is physicochemical.
Data set [5] in a line: Caco2 permeability. The format is in vitro ADME. The conditions noted are these: human, Caco-2.
The subject of data set [6] is HepG2. Kind of data set: HepG2 Cell Titer-GLO luminescent cell viability assay. The conditions noted are these: Homo sapiens, HepG2, 72 h, read-out: HepG2 (luminescence) IC50(72h). The format is cell-based. On the procedure: as §1, §2, §3, §4, §5, §6, §7, §8, §9, §10, §11
572 M5 reader (Molecular Devices). […]
585 37°C humidified incubator as adherent semi-confluent monolayers in complete Dulbecco’s Modified Eagle
586 Media (c-DMEM). DMEM (Gibco™, Thermo Fisher Scientific, Australia) was supplemented with 10%

For data set [7], the target named is PfYRS (Plasmodium falciparum, UniProt Q8IAR7). Kind of data set: Tyrosine acylation of cognate tRNATyr by PfYRS. In kind it is biochemical.
Sequence of PfYRS (Q8IAR7 entry or part of it): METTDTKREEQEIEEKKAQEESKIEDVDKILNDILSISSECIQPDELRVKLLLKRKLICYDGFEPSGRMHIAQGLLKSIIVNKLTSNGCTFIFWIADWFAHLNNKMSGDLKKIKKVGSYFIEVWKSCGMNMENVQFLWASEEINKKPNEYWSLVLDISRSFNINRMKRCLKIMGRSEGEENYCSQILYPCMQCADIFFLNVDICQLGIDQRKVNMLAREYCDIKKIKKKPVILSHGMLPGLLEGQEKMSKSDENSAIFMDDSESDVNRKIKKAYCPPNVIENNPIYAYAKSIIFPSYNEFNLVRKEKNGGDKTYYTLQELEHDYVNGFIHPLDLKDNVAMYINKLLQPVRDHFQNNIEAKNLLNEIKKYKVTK

`Nc1ncnc2c1c(OC(F)F)nn2[C@@H]1O[C@H](COS(N)(=O)=O)[C@@H](O)[C@H]1O` [ML901]: the concentration for half-maximal inhibition (IC50) in data set [1] stood at 33 nM; in data set [2] (read-out: Pf3D7 IC50(72h), P. falciparum 3D7, 72 h), 2 ± 0.1 nM; in data set [2] (3D7 parent of the in vitro evolution experiment, 72 h, read-out: IC50 (3D7)), 1.9 ± 0.1 nM; in data set [6], 1630 nM; in data set [7] it was 53000 nM. Also, the “higher selectivity than AMS” value in data set [2] (P. falciparum versus mammalian cell lines, compared with AMS) is recorded as > 1,000 fold. Besides, in data set [2] (versus different mammalian cell lines), the “selectivity towards P. falciparum” value is 800- to 5,000 fold. The figures for the eIF2α phosphorylation result in data set [3] (eIK1 knockout parasites) and in data set [3] (wildtype P. falciparum cultures) were “does not result in eIF2α phosphorylation” and “triggers eIF2α phosphorylation”, respectively. Moreover, the solubility in data set [4] is > 200 µM. Moreover, the apical-to-basolateral permeability (Papp A→B) in data set [5] (A to B) turned out to be 0.7 ×10⁻⁶ cm/s. In data set [5] (B to A), the Papp B→A is 0.82 ×10⁻⁶ cm/s.
